Series [1] concerns MCF-7 cells. Description: Mammosphere formation in MCF-7 cells. To be noted: for mammosphere formation: MCF-7 cells after transduction, compared to control cells. The series is classed as cell-based, human. On the procedure:
(§1) For mammosphere formation, 1000 cells/ml (500 cells/well) were plated in Ultra Low Cluster Plate, 24-well, Flat Bottom (Corning Inc) with MammoCult™ Medium enriched with MammoCult™ Proliferation Supplements, hydrocortisone and heparin (Stem Cell Technologies) and cultured for 15 days. For all mammosphere assays, at least three independent experiments for each condition were carried out and repeated 8-12 times. For self-renewal experiments, transfected cells were subjected to a first cycle of mammosphere formation. Upon 15 days of culture the created mammospheres were dissociated and cells were re-plated in identical conditions as for the first plating.

The test system of series [2] is c-Myc, Sox 2, Oct 3/4 and Nanog. Description: Expression of pluripotency/reprogramming factors in MCF-7 cells (RT-qPCR, western blot). The series is classed as cell-based, human. To be noted: for c-Myc expression / expression of Oct 3/4, Nanog and Sox 2: MCF-7 cells after transduction, mRNA and/or protein. An excerpt: (§2) The following antibodies were used for immunoblotting: anti-c-Myc (9E10 mouse hybridoma clone), -Nanog (sc-81961, Santa Cruz Biotechnology), -Oct 3/4 (sc-8630, Santa Cruz Biotechnology), -Sox 2 (sc-17320, Santa Cruz Biotechnology), -p53 (DO-1; sc-126 Santa Cruz Biotechnology), -p53 Sapu (Vojtesek et al. 1995), -α-tubulin (clone DM1A, Sigma-Aldrich), -β-actin (clone AC-74 Sigma-Aldrich), -p21 (sc-397 Santa Cruz Biotechnology) and -Flag (clone M2; Sigma-Aldrich). Secondary HRP-conjugated antibodies were from GE Healthcare. For luminescence quantification, cells were serially diluted and incubated with 0.5 mM D-luciferin (Sigma). Luminescence was quantified with a Polarstar Omega instrument (BMG LABTECH).
(§3) Total RNA was extracted (Qiagen) and reverse transcription (RT) was performed with 1-5 μg of total RNA using the SuperScript® III Reverse Transcriptase (Life Technologies) at 50° C. Levels of different mRNAs were quantified by real-time qPCR on a LightCycler480 apparatus (Roche). Briefly, 20 ng cDNA was amplified using 0.168 μM of each primer, 0.2 μM of probe (Table 4) and 1× LightCycler® 480 Probes Master Mix (Roche) for the p53 isoforms, or commercially available primers (Qiagen) and 1× LightCycler® 480 Sybr Green Master Mix (Roche) for the other genes. Data were normalized to the internal standard TBP. The different primers used and their corresponding sequences have been previously described (Bourdon et al., 2005). For each single-well amplification reaction, a threshold cycle (Ct) was calculated by using the LightCycler480 program (Roche) in the exponential phase of amplification. Relative changes in gene expression were determined using the 2ΔΔCt method and reported relative to a control. All quantification studies were performed with at least three independent experiments, repeated twice, for each condition. Data are presented as the arithmetic mean±SEM.
(In qPCR the cycle at which signal appears reflects the starting amount.)

Series [3] has as its system Δ133p53 (α, β and γ) isoforms. Description: Expression of Δ133p53 isoforms in MCF-7 cells (RT-qPCR, western blot). The series is classed as cell-based, human. The conditions noted are these: MCF-7 cells after transduction; RT-qPCR.
Text: as §2
Total RNA was extracted (Qiagen) and reverse transcription (RT) was performed with 1-5 μg of total RNA using the SuperScript® III Reverse Transcriptase (Life Technologies) at 50° C. Levels of different mRNAs were quantified by real-time qPCR on a LightCycler480 apparatus (Roche). […] For each single-well amplification reaction, a threshold cycle (Ct) was calculated by using the LightCycler480 program (Roche) in the exponential phase of amplification. Relative changes in gene expression were determined using the 2ΔΔCt method and reported relative to a control. All quantification studies were performed with at least three independent experiments, repeated twice, for each condition. […]

The subject of series [4] is MCF-7 cells. Description: Flow cytometry of CD44/CD24 double labeling in MCF-7 cells. The series is classed as cell-based, human. To be noted: MCF-7 cells after transduction. On the procedure: (§4) Single cell suspensions were labeled on ice with CD24-FITC, CD44-PE and their respective isotype controls (BioLegend) at the dilutions indicated by the manufacturer in Phosphate Buffered Saline (PBS) with 10% FBS for 30 min. Cells were then washed once with PBS and re-suspended in PBS/10% FBS. All samples were analyzed on a CyAn analyzer ([…] Coulter, Inc) using Sytox Blue (Life Technologies) to monitor cell viability.

Series [5] concerns SW480 colon carcinoma cells. Description: Colosphere formation in SW480 colon carcinoma cells. To be noted: compared to control shLuc. Type of series: cell-based, human. On the procedure: as §1
The same protocol has been used with human colon carcinoma cell line SW480.

Series [6] deals with MDA-MB-231 C3LND cells. Description: Mammosphere formation in MDA-MB-231 C3LND cells. Type of series: cell-based, human. To be noted: C3LND cells after transduction. The method, then:
as §1

The test system of series [7] is c-Myc, Oct 3/4, Nanog and Sox 2. Description: RT-qPCR of pluripotency/reprogramming factors in MDA-MB-231 C3LND cells. Type of series: cell-based, human. The conditions noted are these: C3LND cells after transduction. On the procedure: as §3
Series [8] relates to MDA-MB-231 C3LND cells. Description: Flow cytometry of CD44/CD24 double labeling in MDA-MB-231 C3LND cells. Type of series: cell-based, human. To be noted: C3LND cells after transduction. On the procedure: as §4
On the technique in general: A flow cytometer gives signals particle by particle.

A further series deals with C3LND cancer cells. Description: Distant metastasis after intracardiac injection of C3LND cells in athymic mice (bioluminescence). The series is classed as in vivo. To be noted: transduced C3LND cells, compared to control cells. On the procedure:
All in vivo experiments were performed in compliance with the French regulations and ethical guidelines for experimental animal studies in an accredited establishment (Agreement No. C34-172-27). 2.10^6 control or Sh3-treated C3LND cancer cells were grafted in 6 week-old female athymic mice (Harlan, Le Malourlet, France) by intracardiac injection (n=5-7/group). Bioluminescence detection was used to monitor tumor growth and distal metastasis formation in head and legs. Regions of interest (ROI) were delineated around the tumor sites and the total flux (ph/s) in the ROI was measured.

In the next series the test system is MDA-MB-231 D3H2LN cells. Description: Mammosphere formation in MDA-MB-231 D3H2LN cells. The series is classed as cell-based, human. To be noted: overexpression. On the procedure:
as §1

The test system of series [9] is c-Myc, Oct 3/4, Nanog and Sox 2. Description: Expression of pluripotency/reprogramming factors in MDA-MB-231 D3H2LN cells (RT-qPCR, western blot). The conditions noted are these: D3H2LN cells, overexpression. Type of series: cell-based, human. The method, then: The human breast cancer cell lines MCF-7, MDA-MB 231 D3H2LN and C3LND were grown in MEM supplemented with 10% FCS, sodium pyruvate and glutamine. Following viral infection, cells were used after 24-48 h or subjected to selection with 2 μg/ml puromycin (InvivoGen) or 300 μg/ml hygromycin B (Invitrogen) for two days. Etoposide treatment was performed with final doses of 12.5, 25 and 50 ng/ml for 16 h or 50 ng/ml/day for 7 days.
as §2, §3

From patent US10920198B2, “Delta133p53beta and delta133p53gamma isoforms are biomarkers of cancer stem cells” (Centre National de la Recherche Scientifique (CNRS), priority 2015, dated 2021) come the findings set out here.

As for “Sh2: shRNA, 5′-GTCCAGATGAAGCTCCCAGAA-3′ (SEQ ID NO: 18); targets the long TAp53 and Δ40p53 isoforms (target site or template, no part of the molecule; short hairpin RNA, only the targeted sequence is given, further chemistry not given here)”, the mammosphere formation entry in the series with MCF-7 cells [1] is given as “no effect”. For the same molecule, in series [2], the c-Myc expression entry is given as “but not of c-Myc”; the “expression of Oct 3/4, Nanog and Sox 2” value is “increased expression”. Also, the “expression of the Δ133 isoforms” value in [3] was “increased”. In the series with MCF-7 cells [4], the “proportion of CD44+/CD24− cells” value was “not affected”.
As for “Sh1: shRNA, 5′-GACTCCAGTGGTAATCTAC-3′ (SEQ ID NO: 13); knocks down all p53 isoforms (target site or template, no part of the molecule; short hairpin RNA, only the targeted sequence is given, further chemistry not given here)”, the mammosphere formation entry in the series with MCF-7 cells [1] was “significant reduction”. In addition, in series [2], the c-Myc expression result was “no effect”; the “expression of Oct 3/4, Nanog and Sox 2” value is “no effect”.
Turning to “Sh5: shRNA, 5′-GGACCAGACCAGCTTTCA-3′ (SEQ ID NO: 16); targets the 3′ end of the β isoforms (target site or template, no part of the molecule; short hairpin RNA, only the targeted sequence is given, further chemistry not given here)”, the mammosphere formation entry in the series with MCF-7 cells [1] is listed as “significantly reduced”.
“Sh4: shRNA, 5′-CTTGTGCCCTGACTTTCAA-3′ (SEQ ID NO: 15); targets the 5′ UTR of the Δ133 isoforms (α, β and γ) (target site or template, no part of the molecule; short hairpin RNA, only the targeted sequence is given, further chemistry not given here)”: the mammosphere formation result in the series on MCF-7 cells [1] is listed as “significantly reduced”. In [2], the c-Myc expression entry was “not affected”; the “expression of Oct 3/4, Nanog and Sox 2” value is “significantly down-regulated”.
In the case of “Sh3: shRNA, 5′-GGAGGTGCTTACACATGTT-3′ (SEQ ID NO: 14); targets the 5′ UTR of the Δ133 isoforms (α, β and γ) (target site or template, no part of the molecule; short hairpin RNA, only the targeted sequence is given, further chemistry not given here)”, the mammosphere formation entry in the series with MCF-7 cells [1] is recorded as “significantly reduced”. For the same molecule, in series [2], the c-Myc expression result is “not affected”; the “expression of Oct 3/4, Nanog and Sox 2” value is listed as “significantly down-regulated”. The “Oct 3/4, Nanog and Sox 2 expression” value in series [2] (MCF-7 cells, both etoposide treated and untreated) is reported as “reduced”. In addition, the colospheres formation result in series [5] is given as “significantly reduced”. Besides, the sphere formation entry in the series on MDA-MB-231 C3LND cells [6] is “significant reduction”. Moreover, in series [7], the “Oct 3/4, Nanog and Sox 2 expression” value was “marked decrease”; the c-Myc level result is given as “small increase”. Besides, the “proportion of CD44+/CD24− cells” value in the series on MDA-MB-231 C3LND cells [8] is “decreased”. Further, in the series on C3LND cancer cells, the “metastasis to distant sites” value is recorded as “less prone to metastasize to distant sites”.
“Sh6: shRNA, 5′-GTGAGCGCTTCGAGATGTT-3′ (SEQ ID NO: 19); targets the 3′ end of the α isoforms (target site or template, no part of the molecule; short hairpin RNA, only the targeted sequence is given, further chemistry not given here)”: the mammosphere formation entry in the series on MCF-7 cells [1] is given as “did not affect”.
In the case of “Δ133p53β: human p53 isoform (SEQ ID NO: 1), overexpressed from pMSCVhyg retroviral vector”, the mammosphere formation entry is “significantly promoted” in the series on MCF-7 cells [1] and “significant increase” with MDA-MB-231 D3H2LN cells. For the same molecule, the “mammosphere formation after harvesting and re-plating of primary mammospheres” value in the series with MCF-7 cells [1] (MCF-7 cells overexpressing the isoform, self-renewal) is reported as “higher”. The c-Myc expression entry in series [2] is “but not of c-Myc”. For the same molecule, the “expression of Oct 3/4, Nanog and Sox 2” value in series [2] is listed as “significant increase”. The figures for the “Oct 3/4, Nanog and Sox 2 expression” value in series [7] and in series [9] were “increased” and “significant increase”, respectively. For the same molecule, in [9], the c-Myc level result is listed as “not affected”.

B1: Δ133p53γ: human p53 isoform (SEQ ID NO: 3), overexpressed from pMSCVhyg retroviral vector (protein, listed as Homo sapiens)
chain: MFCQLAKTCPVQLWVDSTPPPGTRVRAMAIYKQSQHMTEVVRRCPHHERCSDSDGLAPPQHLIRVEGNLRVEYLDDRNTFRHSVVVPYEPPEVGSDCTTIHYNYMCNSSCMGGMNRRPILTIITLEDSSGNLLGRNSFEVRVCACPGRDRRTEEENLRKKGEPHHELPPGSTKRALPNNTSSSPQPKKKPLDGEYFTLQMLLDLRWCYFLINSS
modifications: SITE (1)..(214) Homo sapiens tumor protein p53, isoform delta133p53gamma (Genbank NP_001119589.1)
In the case of B1, the mammosphere formation entry in the series on MCF-7 cells [1] is reported as “milder effect”.
